This note sets out measurements from US20260285876A1, “MACROCYCLIC COMPOUNDS AS USP1 INHIBITORS” (GUANGDONG NEWOPP BIOPHARMACEUTICALS CO., LTD., priority 2023, published 2026).

One may read the IC50 as the point on the concentration scale where inhibition reaches its midpoint. Read a high IC50 as lower potency.

T1 sequence (O94782 whole entry): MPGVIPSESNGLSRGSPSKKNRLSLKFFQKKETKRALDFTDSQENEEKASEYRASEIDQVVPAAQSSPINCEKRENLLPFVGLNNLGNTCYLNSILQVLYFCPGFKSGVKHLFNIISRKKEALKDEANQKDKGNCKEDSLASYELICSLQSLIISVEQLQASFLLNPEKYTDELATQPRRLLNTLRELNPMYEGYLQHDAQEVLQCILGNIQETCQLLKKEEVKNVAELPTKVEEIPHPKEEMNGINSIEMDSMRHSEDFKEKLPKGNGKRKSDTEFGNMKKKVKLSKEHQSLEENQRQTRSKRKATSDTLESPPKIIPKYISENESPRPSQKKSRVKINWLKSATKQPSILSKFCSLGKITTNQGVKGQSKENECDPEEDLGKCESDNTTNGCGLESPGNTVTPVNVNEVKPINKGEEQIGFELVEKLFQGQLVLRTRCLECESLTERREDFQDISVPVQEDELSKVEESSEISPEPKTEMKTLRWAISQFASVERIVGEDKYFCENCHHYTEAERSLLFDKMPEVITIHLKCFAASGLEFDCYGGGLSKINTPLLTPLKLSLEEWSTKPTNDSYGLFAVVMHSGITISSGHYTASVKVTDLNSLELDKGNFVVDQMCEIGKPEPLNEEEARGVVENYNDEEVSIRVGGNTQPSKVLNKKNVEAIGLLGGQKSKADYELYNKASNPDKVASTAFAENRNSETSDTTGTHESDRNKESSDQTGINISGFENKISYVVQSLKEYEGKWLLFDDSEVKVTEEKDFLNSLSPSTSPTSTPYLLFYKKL
T1 sequence (Q8TAF3 whole entry partner): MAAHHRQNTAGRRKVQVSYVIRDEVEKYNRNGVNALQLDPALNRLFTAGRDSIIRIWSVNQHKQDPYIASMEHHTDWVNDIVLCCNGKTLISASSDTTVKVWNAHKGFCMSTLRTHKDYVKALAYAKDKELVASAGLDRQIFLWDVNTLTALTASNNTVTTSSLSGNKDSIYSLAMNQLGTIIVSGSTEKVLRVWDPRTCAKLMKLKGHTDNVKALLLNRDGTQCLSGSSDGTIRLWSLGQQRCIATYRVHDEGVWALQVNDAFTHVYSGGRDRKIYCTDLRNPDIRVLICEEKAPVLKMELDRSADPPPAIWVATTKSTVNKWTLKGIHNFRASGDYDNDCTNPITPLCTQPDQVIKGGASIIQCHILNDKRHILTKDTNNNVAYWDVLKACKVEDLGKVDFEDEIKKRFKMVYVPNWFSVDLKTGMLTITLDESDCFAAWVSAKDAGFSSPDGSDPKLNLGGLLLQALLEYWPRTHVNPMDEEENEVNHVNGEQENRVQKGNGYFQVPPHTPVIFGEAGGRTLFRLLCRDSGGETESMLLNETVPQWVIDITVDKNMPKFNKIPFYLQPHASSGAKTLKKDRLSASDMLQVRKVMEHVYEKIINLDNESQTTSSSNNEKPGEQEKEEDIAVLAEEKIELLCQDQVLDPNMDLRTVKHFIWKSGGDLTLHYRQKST

This assay concerns the target T1, USP1/UAF1 (Homo sapiens, UniProt O94782).
T1 construct: purchased R&D Systems
The experiment in a line: Deubiquitination assay for USP1/UAF1 (ubiquitin-rhodamine 110 substrate). Type of assay: biochemical. The conditions noted are these: 0.5 nM USP1/UAF1, 150 nM ubiquitin-rhodamine, 50% inhibition compared to DMSO control. The procedure:
Deubiquitination assay for USP1/UAF1: compounds described here were tested for their ability to inhibit USP1 deubiquitinase activity in this assay using ubiquitin-rhodamine 110 as the substrate. The assay was conducted in the assay buffer (50 mM Tris-HCl, pH 7.8, 0.5 mM EDTA, 0.1 mg/ml Bovine Serum Albumin, 1 mM DTT, 0.01% Tween-20) in 384 well plates. 0.5 nM USP1/UAF1 (R&D Systems) was incubated with compounds in dose response format for 10 minutes at room temperature. Then the reaction was initiated by addition of 150 nM ubiquitin-rhodamine (R&D Systems). The fluorescence intensity was read after 45 minutes at Ex488/Em535 by CLARIOstar (BMG Labtech). IC50 response curves were plotted.
In turn, “1^6-cyclopropyl-4^4-(1-isopropyl-4-(trifluoromethyl)-1H-imidazol-2-yl)-2^1-methyl-2^1H-5,8-dioxa-2(5,3)-pyrazolo[4,3-d]pyrimidina-1(5,4)-pyrimidina-4(1,2)-benzenacyclooctaphane [Example 22]” had an IC50 of at most 100 nM.

Compound “1^6-cyclopropyl-4^4-(1-isopropyl-4-(trifluoromethyl)-1H-imidazol-2-yl)-2^1H-9-oxa-5-aza-2(6,1)-pyrazolo[3,4-d]pyrimidina-1(5,4)-pyrimidina-4(1,2)-benzenacyclononaphan-6-one [Example 15]” came in with an IC50 of at least 1000 nM. The figure for “1^6-cyclopropyl-4^4-(1-isopropyl-4-(trifluoromethyl)-1H-imidazol-2-yl)-2^1H-9-oxa-5-aza-2(6,1)-pyrazolo[3,4-d]pyrimidina-1(5,4)-pyrimidina-4(1,3)-benzenacyclonona-phane [Example 50]” is at most 100 nM; for `Cc1cnc2nc1NCc1ccc(-c3nc(C(F)(F)F)cn3C(C)C)cc1OCCOc1ncnc(C3CC3)c1-2` [Example 1, 1^6-cyclopropyl-5^4-(1-isopropyl-4-(trifluoromethyl)-1H-imidazol-2-yl)-2^5-methyl-6,9-dioxa-3-aza-1(5,4),2(2,4)-dipyrimidina-5(1,2)-benzenacyclononaphane] it is at most 100 nM.

The compound `CC(C)n1cc(C(F)(F)F)nc1-c1ccc2c(c1)OCCOc1ncnc(C3CC3)c1-c1ncc3cnn(c3n1)C2` [Example 2, 1^6-cyclopropyl-4^4-(1-isopropyl-4-(trifluoromethyl)-1H-imidazol-2-yl)-2^1H-5,8-dioxa-2(6,1)-pyrazolo[3,4-d]pyrimidina-1(5,4)-pyrimidina-4(1,2)-benzenacyclooctaphane] gave an IC50 of at most 100 nM.

Compound `CC(C)n1cc(C(F)(F)F)nc1-c1ccc2c(c1)OCCCCOc1ncnc(C3CC3)c1-c1ncc3cnn(c3n1)C2` [Example 3, 1^6-cyclopropyl-4^4-(1-isopropyl-4-(trifluoromethyl)-1H-imidazol-2-yl)-2^1H-5,10-dioxa-2(6,1)-pyrazolo[3,4-d]pyrimidina-1(5,4)-pyrimidina-4(1,2)-benzenacyclodecaphane] yielded an IC50 of at least 1000 nM. In the case of `CC(C)n1cc(C(F)(F)F)nc1-c1ccc2c(c1)CCOc1ncnc(C3CC3)c1-c1ncc3cnn(c3n1)C2` [Example 4, 1^6-cyclopropyl-4^4-(1-isopropyl-4-(trifluoromethyl)-1H-imidazol-2-yl)-2^1H-7-oxa-2(6,1)-pyrazolo[3,4-d]pyrimidina-1(5,4)-pyrimidina-4(1,2)-benzenacycloheptaphane] it was at least 1000 nM. In the case of `CC(C)n1cc(C(F)(F)F)nc1-c1ccc2c(c1)OCCCOc1ncnc(C3CC3)c1-c1ncc3cnn(c3n1)C2` [Example 5, 1^6-cyclopropyl-4^4-(1-isopropyl-4-(trifluoromethyl)-1H-imidazol-2-yl)-2^1H-5,9-dioxa-2(6,1)-pyrazolo[3,4-d]pyrimidina-1(5,4)-pyrimidina-4(1,2)-benzenacyclononaphane] it was at most 100 nM; in that of `CC(C)c1cccc2c1-c1ncc3cnn(c3n1)Cc1ccc(-c3nc(C(F)(F)F)cn3C(C)C)cc1OCCO2` [Example 7, 1^6-isopropyl-4^4-(1-isopropyl-4-(trifluoromethyl)-1H-imidazol-2-yl)-2^1H-5,8-dioxa-2(6,1)-pyrazolo[3,4-d]pyrimidina-1,4(1,2)-dibenzenacyclooctaphane], at most 100 nM.

Turning to `CC(C)n1cc(C(F)(F)F)nc1-c1ccc2c(c1)NCCCOc1ncnc(C3CC3)c1-c1ncc3cnn(c3n1)C2` [Example 8, 1^6-cyclopropyl-4^4-(1-isopropyl-4-(trifluoromethyl)-1H-imidazol-2-yl)-2^1H-9-oxa-5-aza-2(6,1)-pyrazolo[3,4-d]pyrimidina-1(5,4)-pyrimidina-4(1,2)-benzenacyclononaphane], the IC50 was at most 100 nM. Turning to `CC(C)n1cc(C(F)(F)F)nc1-c1ccc2c(c1)CCCOc1ncnc(C3CC3)c1-c1ncc3cnn(c3n1)C2` [Example 9, 1^6-cyclopropyl-4^4-(1-isopropyl-4-(trifluoromethyl)-1H-imidazol-2-yl)-2^1H-8-oxa-2(6,1)-pyrazolo[3,4-d]pyrimidina-1(5,4)-pyrimidina-4(1,2)-benzenacyclooctaphane], the IC50 is at most 100 nM. Consider `CC(C)n1cc(C(F)(F)F)nc1-c1ccc2c(c1)OCCCNc1c(ncnc1C1CC1)-c1ncc3cnn(c3n1)C2` [Example 10, 1^6-cyclopropyl-4^4-(1-isopropyl-4-(trifluoromethyl)-1H-imidazol-2-yl)-2^1H-5-oxa-9-aza-2(6,1)-pyrazolo[3,4-d]pyrimidina-1(5,4)-pyrimidina-4(1,2)-benzenacyclononaphane], for which the IC50 was at most 100 nM. The figure for `CC(C)n1cc(C(F)(F)F)nc1-c1ccc2c(c1)OCCNc1ncnc(C3CC3)c1-c1ncc3cnn(c3n1)C2` [Example 11, 1^6-cyclopropyl-4^4-(1-isopropyl-4-(trifluoromethyl)-1H-imidazol-2-yl)-2^1H-5-oxa-8-aza-2(6,1)-pyrazolo[3,4-d]pyrimidina-1(5,4)-pyrimidina-4(1,2)-benzenacyclooctaphane] is at most 100 nM; for `CC(C)n1cc(C(F)(F)F)nc1-c1ccc2c(c1)OCC1(CC1)COc1ncnc(C3CC3)c1-c1ncc3cnn(c3n1)C2` [Example 12, 6′-cyclopropyl-4′-(1-isopropyl-4-(trifluoromethyl)-1H-imidazol-2-yl)spiro[cyclopropane-1,7′-5,9-dioxa-2(6,1)-pyrazolo[3,4-d]pyrimidina-1(5,4)-pyrimidina-4(1,2)-benzenacyclononaphane]] it is 100 to 1000 nM; for `FC(F)(F)c1cn(C2CC2)c(-c2ccc3c(c2)OCCOc2ncnc(C4CC4)c2-c2ncc4cnn(c4n2)C3)n1` [Example 13, 1^6-cyclopropyl-4^4-(1-cyclopropyl-4-(trifluoromethyl)-1H-imidazol-2-yl)-2^1H-5,8-dioxa-2(6,1)-pyrazolo[3,4-d]pyrimidina-1(5,4)-pyrimidina-4(1,2)-benzenacyclooctaphane] it is at most 100 nM. Compound `CC(C)n1cc(C(F)(F)F)nc1-c1ccc2c(c1)NCCOc1ncnc(C3CC3)c1-c1ncc3cnn(c3n1)C2` [Example 14, 1^6-cyclopropyl-4^4-(1-isopropyl-4-(trifluoromethyl)-1H-imidazol-2-yl)-2^1H-8-oxa-5-aza-2(6,1)-pyrazolo[3,4-d]pyrimidina-1(5,4)-pyrimidina-4(1,2)-benzenacyclooctaphane] came in with a half-inhibitory concentration (IC50) of at most 100 nM. Turning to `CC(C)n1cc(C(F)(F)F)nc1-c1ccc2c(c1)OCCOc1ncnc(C3CC3)c1-c1ncc3ccc(=O)n(c3n1)C2` [Example 16, 1^6-cyclopropyl-4^4-(1-isopropyl-4-(trifluoromethyl)-1H-imidazol-2-yl)-2^7,2^8-dihydro-5,8-dioxa-2(2,8)-pyrido[2,3-d]pyrimidina-1(5,4)-pyrimidina-4(1,2)-benzenacyclooctaphan-2^7-one], the IC50 is at most 100 nM. Consider `CC(C)n1cc(C(F)(F)F)nc1-c1ccc2c(c1)OCCCOc1ncnc(C3CC3)c1-c1ncc3ccc(=O)n(c3n1)C2` [Example 17, 1^6-cyclopropyl-4^4-(1-isopropyl-4-(trifluoromethyl)-1H-imidazol-2-yl)-2^7,2^8-dihydro-5,9-dioxa-2(2,8)-pyrido[2,3-d]pyrimidina-1(5,4)-pyrimidina-4(1,2)-benzenacyclononaphan-2^7-one], for which the IC50 is at most 100 nM. The figure for `O=c1ccc2cnc3nc2n1Cc1ccc(-c2nc(C(F)(F)F)cn2C2CC2)cc1CCOc1c-3ncnc1C1CC1` [Example 18, 1^6-cyclopropyl-4^4-(1-cyclopropyl-4-(trifluoromethyl)-1H-imidazol-2-yl)-2^7,2^8-dihydro-7-oxa-2(2,8)-pyrido[2,3-d]pyrimidina-1(5,4)-pyrimidina-4(1,2)-benzenacycloheptaphan-2^7-one] is at least 1000 nM; for `CC(C)n1cc(C(F)(F)F)nc1-c1ccc2c(c1)OCCCNc1ncnc(C3CC3)c1-c1ncc3ccc(=O)n(c3n1)C2` [Example 19, 1^6-cyclopropyl-4^4-(1-isopropyl-4-(trifluoromethyl)-1H-imidazol-2-yl)-2^7,2^8-dihydro-5-oxa-9-aza-2(2,8)-pyrido[2,3-d]pyrimidina-1(5,4)-pyrimidina-4(1,2)-benzenacyclononaphan-2^7-one] it is 100 to 1000 nM. The figure for `CC(C)n1cc(C(F)(F)F)nc1-c1ccc2c(c1)NCCCOc1ncnc(C3CC3)c1-c1ncc3ccc(=O)n(c3n1)C2` [Example 20, 1^6-cyclopropyl-4^4-(1-isopropyl-4-(trifluoromethyl)-1H-imidazol-2-yl)-2^7,2^8-dihydro-9-oxa-5-aza-2(2,8)-pyrido[2,3-d]pyrimidina-1(5,4)-pyrimidina-4(1,2)-benzenacyclononaphan-2^7-one] is at most 100 nM; for `FC(F)(F)c1cn(C2CC2)c(-c2ccc3c(c2)OCCOc2ncnc(C4CC4)c2-c2ncc4ccc(n4n2)C3)n1` [Example 21, (Z)-1^6-cyclopropyl-4^4-(1-cyclopropyl-4-(trifluoromethyl)-1H-imidazol-2-yl)-5,8-dioxa-2(2,7)-pyrrolo[2,1-f][1,2,4]triazina-1(5,4)-pyrimidina-4(1,2)-benzenacyclooctaphane] it is at most 100 nM; for `CC(C)n1cc(C(F)(F)F)nc1-c1ccc2c(c1)N(C)CCCOc1ncnc(C3CC3)c1-c1ncc3cnn(c3n1)C2` [Example 23, 1^6-cyclopropyl-4^4-(1-isopropyl-4-(trifluoromethyl)-1H-imidazol-2-yl)-5-methyl-2^1H-9-oxa-5-aza-2(6,1)-pyrazolo[3,4-d]pyrimidina-1(5,4)-pyrimidina-4(1,2)-benzenacyclononaphane] it is at least 1000 nM.
